From patent US20170281653A1, “DERMOCOSMETIC OR PHARMACEUTICAL USE OF A COMPOSITION CONTAINING AT LEAST ONE INHIBITOR OF CERTAIN CHEMOKINES” (GREENPHARMA, priority 2014, published 2017)
Like-named read-outs stand apart in the source and are kept apart here.

How the values were obtained:
[1] = target: T1, CCL17 (Homo sapiens, UniProt Q92583); assay: Inhibition of intracellular calcium response (INDO-1) induced by CCL17 in HEK 293 cells expressing CCR4; format: cell-based; conditions: compound concentration not given
T1 construct: host or cells: HEK 293 cells expressing EGFP-CCR4 (and Gqi5)
T1 sequence (Q92583 24-94): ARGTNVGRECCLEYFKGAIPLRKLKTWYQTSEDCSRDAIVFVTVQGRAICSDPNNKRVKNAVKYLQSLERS
Experimental: In order to enable an easy recording of the responses associated to the CCR4 receptor, the cDNA which allows its expression is cloned in the plasmid pIRES (ClonTech) in fusion with the GFP protein, according to Vollmer et al. (1999), which enables to easily measure the expression of the chimeric EGFP-CCR4 receptor. HEK 293 cells (ATCC) are cultured in minimal essential medium MEM (Invitrogen) in the presence of 10% of fetal calf serum (Gibco-BRL), 100 U/mL of penicillin (Invitrogen), 100 αg/mL of streptomycin (Invitrogen) and 2 mM of L-glutamine (Invitrogen) at 37° C. in water-saturated atmosphere and containing 5% of 002. The cells are transfected according to the calcium phosphate precipitate method of Chen ant Okayama, 1986, and the cells having incorporated the expression plasmid are selected with 600 αg/mL of geneticin G-418 (PAA) for 5 weeks. The clones are selected after having been characterized by fluorescence microscopy and cytometric analysis by FACS (fluorescence assisted cell sorting). In order to enable an easy recording of the cell responses associated to the CCR4 receptor, we modify its natural coupling to the inhibition of AMPc production to a coupling to the phospholipase C which enables calcium measurements. We produce for this purpose the chimeric protein Gqi5 by directed mutagenesis of the 5 las amino acids of Gq replaced by their homologues of Gi. The cells expressing the CCR4 receptor are transfected with the plasmid pCNA3.1 in which the cDNA encoding Gqi5 has been incorporated. The recordings of calcium responses are performed the day after de transfection. The cells are loaded with a fluorescent calcium indicator, INDO-1, according to the protocol provided by the provider (Molecular probes), distributed in microplate wells and placed in a fluorescence reader-pipettor (FlexStation, Molecular devices). Intracellular calcium elevation is measured by fluorescence intensity change at 401 and 475 nm (excitation 355 nm). Measure points are recorded every 5 s for 150 s for each well. The molecules are tested in the presence of 5 nM of chemokine CCL22 (commercial). […] The response develops in a few seconds and fades with time for reaching the return in approximately 2 minutes for a chemokine CCL22 concentration of 5 to 10 nM in HEK 293 cells expressing CCR4. If the molecules to be tested are preincubated with chemokine [CK+N] and if the mixture is added to the cells, we observe a strong decrease in the amplitude of the response if the molecule to be tested is a neutralizing ligand of the chemokine. Conversely, when the neutralizing ligand is preincubated with the cells expressing the receptor [CKR+N] we observe a much smaller decrease of the amplitude of the response. Analysis of the molecules selectivity is carried out by measuring the inhibition of the response evoked by other chemokines on their respective receptors thus, in FIG. 3, the molecules have been tested on the pairs CCL2/CCR2, CCL3/CCR5, CCL17/CCR4, CCL22/CCR4, […], CXCL10/CXCR2, CXCL11/CXCR3, CXCL12/CXCR4.

[2] = target: T2, CCL22 (Homo sapiens, UniProt O00626); assay: Inhibition of intracellular calcium response (INDO-1) induced by CCL22 in HEK 293 cells expressing EGFP-CCR4 and Gqi5; format: cell-based; parameters: purchased; host or cells: HEK 293 cells stably expressing EGFP-CCR4, transiently transfected with Gqi5; conditions: HEK 293 cells expressing CCR4; 5 nM CCL22; compound concentration not given
T2 sequence (O00626 25-93): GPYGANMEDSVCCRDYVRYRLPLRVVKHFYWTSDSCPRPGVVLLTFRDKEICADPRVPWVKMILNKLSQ
Experimental: In order to enable an easy recording of the responses associated to the CCR4 receptor, the cDNA which allows its expression is cloned in the plasmid pIRES (ClonTech) in fusion with the GFP protein, according to Vollmer et al. (1999), which enables to easily measure the expression of the chimeric EGFP-CCR4 receptor. HEK 293 cells (ATCC) are cultured in minimal essential medium MEM (Invitrogen) in the presence of 10% of fetal calf serum (Gibco-BRL), 100 U/mL of penicillin (Invitrogen), 100 αg/mL of streptomycin (Invitrogen) and 2 mM of L-glutamine (Invitrogen) at 37° C. in water-saturated atmosphere and containing 5% of 002. The cells are transfected according to the calcium phosphate precipitate method of Chen ant Okayama, 1986, and the cells having incorporated the expression plasmid are selected with 600 αg/mL of geneticin G-418 (PAA) for 5 weeks. The clones are selected after having been characterized by fluorescence microscopy and cytometric analysis by FACS (fluorescence assisted cell sorting). In order to enable an easy recording of the cell responses associated to the CCR4 receptor, we modify its natural coupling to the inhibition of AMPc production to a coupling to the phospholipase C which enables calcium measurements. We produce for this purpose the chimeric protein Gqi5 by directed mutagenesis of the 5 las amino acids of Gq replaced by their homologues of Gi. The cells expressing the CCR4 receptor are transfected with the plasmid pCNA3.1 in which the cDNA encoding Gqi5 has been incorporated. The recordings of calcium responses are performed the day after de transfection. The cells are loaded with a fluorescent calcium indicator, INDO-1, according to the protocol provided by the provider (Molecular probes), distributed in microplate wells and placed in a fluorescence reader-pipettor (FlexStation, Molecular devices). Intracellular calcium elevation is measured by fluorescence intensity change at 401 and 475 nm (excitation 355 nm). Measure points are recorded every 5 s for 150 s for each well. The molecules are tested in the presence of 5 nM of chemokine CCL22 (commercial). […] The response develops in a few seconds and fades with time for reaching the return in approximately 2 minutes for a chemokine CCL22 concentration of 5 to 10 nM in HEK 293 cells expressing CCR4. If the molecules to be tested are preincubated with chemokine [CK+N] and if the mixture is added to the cells, we observe a strong decrease in the amplitude of the response if the molecule to be tested is a neutralizing ligand of the chemokine. Conversely, when the neutralizing ligand is preincubated with the cells expressing the receptor [CKR+N] we observe a much smaller decrease of the amplitude of the response. The apparent affinity of the GPN136 molecules is determined by the establishment of a dose-effect relationship of the inhibition of the calcium response as presented in FIG. 2 and the results obtained are reported in table 1.

[3] = target: T2, CCL22; assay: Interaction affinity by fluorescence extinction of tryptophan residues of CCL22; format: binding; conditions: for Fluorescence extinction of CCL22 (tryptophan intrinsic fluorescence): excitation 285 nm, emission 300-400 nm, FIG. 4; for Kd: CCL22 1.5 μm, HEPES buffer without albumin, 20° C., biphasic titration curve
Experimental: Briefly: the fluorescence measurements are carried out on a spectrofluorimeter Fluorolog 3 (JobinYvon/Spex) in a quartz cuvette. CCL22 (1.5 μm (HEPES buffer without albumin) in 1 mL final volume) is excited at 285 nm and its emission spectrum is recorded between 300 and 400 nm after each addition of an aliquot of molecule to be tested (1 μm). The measurements are carried out at 20° C. and the solutions are stirred using a magnetic stir bar. The recorded emission spectra are corrected by subtraction of the emission spectrum of the compound to be tested alone.

[4] = system: Hacat cells; assay: Human keratinocyte migration assay (in vitro wound-healing test in a cell monolayer, scratch, IncuCyte); format: cell-based; conditions: 100 ng/ml CCL22, 72 h, mitomycin 1 μg/ml, FIG. 5
Text: The activity of the GPN 136 molecule has been evaluated in a human keratinocytes migration assay performed according to an in vitro wound-healing test in a cell monolayer. It is actually known that, in these chronic pathologies, an important cell migration may promote de formation of pruritus, one of the signs of dermatosis. The immortalized human keratinocytes obtained from the DKFZ (Heidelberg, Germany) are cultivated in Dulbecco medium modified by Eagle (DMEM, Invitrogen) supplemented with 10% of fetal calf serum (Gibco-BRL) and 100 U/ml of penicillin (Invitrogen), 100 μg/ml of streptomycin (Invitrogen) and 2 mM of L glutamine (Invitrogen) at 37° C. and 5% of CO2. The wells of a culture plate of 24 well are inoculated with 200,000 cells and the culture is maintained until formation of a confluent cell monolayer. The cell monolayer is then damaged by performing a linear gap (scratch) using a sterile pipette head of 0.1-10 μL. […] The effect of the molecules alone is also recorded in different wells. […]
The culture plates are arranged in the IncuCyte apparatus which records the growth on the cell monolayer by transmitted imaging in cell culture conditions (37° C., 5% CO2, water-saturated atmosphere) for 72 h. […] Healing is defined (quantified) as the ratio of the width of the scar at time t and time 0. […]

[5] = system: Hacat cells; assay: Metabolic activity test (WST-1 assay), in vitro cytotoxic activity; format: cell-based, human; conditions: 0.3 μM, 10 μM or 30 μM, 72 hours, FIG. 7
Text: The metabolic activity test is a colorimetric test (WST-1 assay—Ozyme) based on the measurement of the activity of the mitochondrial enzyme succinate-tetrazolium reductase cleaving the tetrazolium salt WST-1 ((4-[3-(4-Iodophenyl)-2-(4-nitrophenyl)-2H-5-tetrazolio]-1,3 benzene disulfonate)) in a water-soluble derivative called formazan, a dye which absorbs light in the range of 420-480 nm. Hacat cells are distributed at the rate of 200,000 cells per well in a culture plate of 24 wells, in a final volume of 500 μL. They are cultured for 24 hours before adding mitomycin C (1 μg/ml) and the compound to be tested. The culture plate is incubated for 72 hours at 37° C., 5% CO2, in water-saturated atmosphere. […] The plates are stirred to homogenize the color in the wells and the absorbance is measured at 450 nm in the multiwell-plate reader. […] As enzymatic activity requires cellular integrity, the absorbance will be all the stronger as the metabolic state of the cells is good.
In vitro cytotoxic activity: the Hacat cell cultures are treated with different concentrations of molecule: 0.3 μM (dark gray bars), 10 μM (light gray bars) or 30 μM (white bars) of GPN 136 and GPN 025 molecules. The activity of the mitochondrial enzyme formazan-reductase is recorded using the chromogenic substrate WST-1 which turns into a colored product, called formazan, detected at 450 nm.

SMILES	Inhibition of calcium responses induced by CCL17 (%) [1] [%]	Inhibition of calcium responses induced by CCL22 (%) [2] [%]	further results
O=C(OCC(O)COC(=O)c1ccccc1O)c1ccccc1O [GPS008504]	0	10 ± 5	
O=C(O)c1ccccc1O [GPN0001207]	0	0	
COc1cc2nc(N3CCC(N4CCCCC4)CC3)nc(NC3CCCCCC3)c2cc1OC [C-021, reference compound]			Fluorescence extinction of CCL22 (tryptophan intrinsic fluorescence) [3]: no signal
CC(=O)Oc1ccccc1C(=O)O [Acetylsalicylic acid, reference compound]	0	0	
O=C(OCC(O)CO)c1ccccc1O (stereo in doubt) [GPS008506, (S)-2,3-dihydroxypropyl 2-hydroxybenzoate]	0	40 ± 5	
O=C(OCC(O)CO)c1ccccc1O (stereo in doubt) [GPS008505, (R)-2,3-dihydroxypropyl 2-hydroxybenzoate]	0	37 ± 6	
O=C(OC[C@H](O)CO)c1ccccc1 [GPS008508]	0	0	
O=C(OC[C@@H](O)CO)c1ccccc1 [GPS008507]	0	0	
O=C(OCC(O)CO)c1ccccc1O (stereo not shown) [GPN136, 2,3-dihydroxypropyl 2-hydroxybenzoate]	0	35 ± 8	Kd ([3]; read-out: KD, second site): 53 µM; Kd ([3]; read-out: KD, site of high affinity): < 0.05 µM; Fluorescence extinction of CCL22 (tryptophan intrinsic fluorescence) [3]: fluorescence extinction of CCL22 is observed; Effect on CCL22-accelerated cell migration [4]: abolished; Effect on mitochondrial enzymatic activity / cellular metabolism (WST-1, 450 nm) [5]: does not affect enzymatic activity
